Measured values published in PMC11396667, “Design, Synthesis, and Anticancer and Antibacterial Activities of Quinoline-5-Sulfonamides” (Molecules, 2024).
Converted amounts (≈) assume the structure as drawn.

What follows are molecules tested on methicillin-resistant S. aureus SA 3202 (assay: MBC, agar aliquot subculture method, MRSA1). Settings: Staphylococcus aureus; 99.9% decrease in CFU, 24 h, 37 °C.
Assay type: cell-based
From the text: (§1) The activities of the individual derivatives were expressed as minimum inhibitory concentrations (MICs) and minimum bactericidal concentrations (MBCs) and are shown in Table 3 together with the values of the antibiotics used as standards for comparison. […] MBC values of bactericidal compounds are indicated in bold in Table 3.
(§2) For the above-mentioned strains/isolates, the agar aliquot subculture method was used as a test for bactericidal agents. After the MIC value determination, the inoculum was transferred to CaMH (Oxoid) for staphylococci, and BHI (Oxoid) for enterococci medium using a multipoint inoculator. The plates were incubated in a thermostat at 37 °C for 24 h. The lowest concentration of test compound at which ≤5 colonies were obtained was then evaluated as MBC, corresponding to a 99.9% decrease in CFU relative to the original inoculum.
Molecule `C#CCNS(=O)(=O)c1ccc(O)c2ncccc12` [3a, 8-Hydroxy-N-(prop-2-yn-1-yl)quinoline-5-sulfonamide] has an MBC of 122 µM (≈ 32 µg/mL).
`C#CC(C)(C)NS(=O)(=O)c1ccc(O)c2ncccc12` [3b, 8-Hydroxy-N-(1,1-dimethylprop-2-yn-1-yl)quinoline-5-sulfonamide] was tested, and the MBC was 110 µM (≈ 31.9 µg/mL).
`C#CCOc1ccccc1NS(=O)(=O)c1ccc(O)c2ncccc12` [3f, 8-Hydroxy-N-[2-(prop-2-yn-1-yloxy)phenyl]quinoline-5-sulfonamide] showed an MBC of 90.4 µM (≈ 32 µg/mL).

These molecules were tested on methicillin-resistant S. aureus SA 630 (assay: MIC, microtitration broth method, MRSA2). Settings: Staphylococcus aureus; 24 h, 37 °C, CaMH broth.
Assay type: cell-based
From the text: (§3) Since there is a general decrease in immunity during the treatment of oncological patients, i.e., patients are more susceptible to infectious diseases, it is advantageous if anticancer agents show antimicrobial properties at the same time. Therefore, the effects of the compounds were also investigated against Gram-positive bacteria. For this purpose, the susceptible collection strains of aerobic Staphylococcus aureus ATCC 29213 and facultatively aerobic Enterococcus faecalis ATCC 29212 and resistant clinical isolates of methicillin-resistant S. aureus (MRSA) SA 3202, SA 630 carrying the mecA gene, and vancomycin-resistant isolates of E. faecalis (VRE) 342B, 368, and 725B carrying the vanA gene were selected. Thus, the selection of the studied bacterial strains was adopted following the CLSI ([…]) international reference methodologies.
(§4) The in vitro antibacterial activity of the synthesized compounds was evaluated against representatives of multidrug-resistant bacteria, […] clinical isolates of methicillin-resistant S. aureus: clinical isolates of human origin, MRSA SA 3202, and MRSA SA 630 (National Institute of Public Health, Prague, Czech Republic), carrying the mecA gene. These two clinical isolates were classified as vancomycin-susceptible (but with a higher MIC of vancomycin equal to 2 μg/mL (VA2-MRSA). Vancomycin- and methicillin-susceptible S. aureus ATCC 29213 and vancomycin-susceptible Enterococcus faecalis ATCC 29212, obtained from the American Type Culture Collection, were used as the reference and quality control strains. Three vanA gene-carrying vancomycin-resistant isolates of E. faecalis (VRE 342B, VRE 368, VRE 725B) (Department of Infectious Diseases and Microbiology, Faculty of Veterinary Medicine, University of Veterinary Sciences Brno, Czech Republic) were provided by Oravcova et al..
(§5) The minimum inhibitory concentrations (MICs) were evaluated by the microtitration broth method according to the CLSI, with some modifications. The compounds were dissolved in DMSO (Sigma, St. Louis, MO, USA) to obtain a concentration of […] and diluted in a microtitration plate in an appropriate medium, i.e., Cation-Adjusted Mueller–Hinton Broth (CaMH, Oxoid, Basingstoke, UK) for staphylococci, and Brain Heart Infusion Broth (BHI, Oxoid) for enterococci to reach the final concentration of 256–0.125 µg/mL. Microtiter plates were inoculated with test microorganisms so that the final concentration of bacterial cells was 10^5. Ampicillin, oxacillin, and ciprofloxacin (Sigma) were used as reference drugs. A drug-free control and a sterility control were included. The plates were incubated for 24 h at 37 °C for staphylococci and enterococci. […] The experiments were repeated three times.
Molecule `C#CCNS(=O)(=O)c1ccc(O)c2ncccc12` [3a, 8-Hydroxy-N-(prop-2-yn-1-yl)quinoline-5-sulfonamide] has an MIC of 244 µM (≈ 64 µg/mL).
Work on `C#CC(C)(C)NS(=O)(=O)c1ccc(O)c2ncccc12` [3b, 8-Hydroxy-N-(1,1-dimethylprop-2-yn-1-yl)quinoline-5-sulfonamide] yielded an MIC of 110 µM (≈ 31.9 µg/mL).
Molecule `C#CCOc1ccccc1NS(=O)(=O)c1ccc(O)c2ncccc12` [3f, 8-Hydroxy-N-[2-(prop-2-yn-1-yloxy)phenyl]quinoline-5-sulfonamide] has an MIC of 90.4 µM (≈ 32 µg/mL).

The molecules below were run on HFF-1 (normal human dermal fibroblasts) (assay: WST-1 cell viability assay, normal HFF-1). Settings: HFF-1, WST-1, 72 h exposure, ± SD, n = 6.
Assay type: cell-based
Description: (§6) The synthesized compounds were tested using three cancer cell lines—human amelanotic melanoma (C-32), human breast adenocarcinoma (MDA-MB-231), and human lung adenocarcinoma (A549)—and, for comparison, normal human dermal fibroblasts (HFF-1). The WST-1 (water-soluble tetrazole salt) assay was used to evaluate the effect of the synthesized compounds on the viability of cultured cells.
(§7) Compounds were evaluated for their antiproliferative activity using three cultured cell lines: C-32 (human amelanotic melanoma, ATCC, Manassas, VA, USA), A549 (human lung adenocarcinoma, ATCC, Manassas, VA, USA), MDA-MB-231 (human breast adenocarcinoma derived from metastatic site: pleural effusion, ATCC, Manassas, VA, USA), together with HFF-1 (normal human dermal fibroblasts, ATCC, Manassas, VA, USA). The cultured cells were kept at 37 °C and 5% CO2.
(§8) Cells were seeded in 96-well plates at 5000/well in 100 μL of medium. After 24 h of incubation, the medium was replaced with a new one with the addition of the test substance. After 72 h, the following tests were performed: with crystal violet (determination of the number of adherent cells in the culture), the WST-1 test (determination of the relative number of living cells and their metabolic activity), and the LDH test (determination of the relative number of dead cells in cultures—cytotoxicity of the tested substance).
(§9) WST-1 test: The WST-1 test (Roche Diagnostics, Mannheim, Germany) allows one to determine the relative number of cells in cultures. Absorbance is directly proportional to the number of cells and their metabolic activity. The absorbance measurement is performed at λ = 450 nm (reference wave 600 nm).
`C#CCNS(=O)(=O)c1ccc(O)c2ncccc12` [3a, 8-Hydroxy-N-(prop-2-yn-1-yl)quinoline-5-sulfonamide] was tested, and the IC50 was > 100 µM.
In the case of `C#CC(C)(C)NS(=O)(=O)c1ccc(O)c2ncccc12` [3b, 8-Hydroxy-N-(1,1-dimethylprop-2-yn-1-yl)quinoline-5-sulfonamide], the IC50 is reported as > 100 µM.
`C#CCOc1ccccc1NS(=O)(=O)c1ccc(O)c2ncccc12` [3f, 8-Hydroxy-N-[2-(prop-2-yn-1-yloxy)phenyl]quinoline-5-sulfonamide] showed an IC50 of 28.1 ± 2.2 µM.

What follows are molecules tested on methicillin-resistant S. aureus SA 630 (assay: MBC, agar aliquot subculture method, MRSA2). Settings: Staphylococcus aureus; 99.9% decrease in CFU, 24 h, 37 °C.
Assay type: cell-based
From the text: as §1, §2
`C#CCNS(=O)(=O)c1ccc(O)c2ncccc12` [3a, 8-Hydroxy-N-(prop-2-yn-1-yl)quinoline-5-sulfonamide] showed an MBC of 244 µM (≈ 64 µg/mL).
Molecule `C#CC(C)(C)NS(=O)(=O)c1ccc(O)c2ncccc12` [3b, 8-Hydroxy-N-(1,1-dimethylprop-2-yn-1-yl)quinoline-5-sulfonamide] has an MBC of 110 µM (≈ 31.9 µg/mL).
`C#CCOc1ccccc1NS(=O)(=O)c1ccc(O)c2ncccc12` [3f, 8-Hydroxy-N-[2-(prop-2-yn-1-yloxy)phenyl]quinoline-5-sulfonamide] was tested, and the MBC was 90.4 µM (≈ 32 µg/mL).

What follows are molecules tested on vancomycin-resistant E. faecalis VRE 725B (assay: MIC, microtitration broth method, VRE3). Settings: Enterococcus faecalis, 24 h, 37 °C, BHI broth.
Assay type: cell-based
From the text: as §3, §4, §5
`C#CCNS(=O)(=O)c1ccc(O)c2ncccc12` [3a, 8-Hydroxy-N-(prop-2-yn-1-yl)quinoline-5-sulfonamide] gave an MIC of 977 µM (≈ 256 µg/mL).
`C#CC(C)(C)NS(=O)(=O)c1ccc(O)c2ncccc12` [3b, 8-Hydroxy-N-(1,1-dimethylprop-2-yn-1-yl)quinoline-5-sulfonamide] was tested, and the MIC was 883 µM (≈ 256 µg/mL).
Work on `C#CCOc1ccccc1NS(=O)(=O)c1ccc(O)c2ncccc12` [3f, 8-Hydroxy-N-[2-(prop-2-yn-1-yloxy)phenyl]quinoline-5-sulfonamide] yielded an MIC of 362 µM (≈ 128 µg/mL).

What follows are molecules tested on MDA-MB-231 (human breast adenocarcinoma) cells (assay: WST-1 cell viability assay, MDA-MB-231). Settings: Homo sapiens, MDA-MB-231; WST-1, 72 h exposure, ± SD, n = 6.
Assay type: cell-based
Description: as §6, §7, §8, §9
Molecule `C#CCNS(=O)(=O)c1ccc(O)c2ncccc12` [3a, 8-Hydroxy-N-(prop-2-yn-1-yl)quinoline-5-sulfonamide] has an IC50 of 23.3 ± 1.2 µM.
In the case of `C#CC(C)(C)NS(=O)(=O)c1ccc(O)c2ncccc12` [3b, 8-Hydroxy-N-(1,1-dimethylprop-2-yn-1-yl)quinoline-5-sulfonamide], the IC50 is reported as 55.8 ± 1.9 µM.
`C#CCOc1ccccc1NS(=O)(=O)c1ccc(O)c2ncccc12` [3f, 8-Hydroxy-N-[2-(prop-2-yn-1-yloxy)phenyl]quinoline-5-sulfonamide] showed an IC50 of 14.7 ± 1.2 µM.

The molecules below were run on Staphylococcus aureus ATCC 29213 (assay: MIC, microtitration broth method, SA). Settings: ATCC29213, 24 h, 37 °C, CaMH broth.
Assay type: cell-based
From the text: as §3, §4, §5
`C#CCNS(=O)(=O)c1ccc(O)c2ncccc12` [3a, 8-Hydroxy-N-(prop-2-yn-1-yl)quinoline-5-sulfonamide] showed an MIC of 122 µM (≈ 32 µg/mL).
Molecule `C#CC(C)(C)NS(=O)(=O)c1ccc(O)c2ncccc12` [3b, 8-Hydroxy-N-(1,1-dimethylprop-2-yn-1-yl)quinoline-5-sulfonamide] has an MIC of 55.2 µM (≈ 16 µg/mL).
`C#CCOc1ccccc1NS(=O)(=O)c1ccc(O)c2ncccc12` [3f, 8-Hydroxy-N-[2-(prop-2-yn-1-yloxy)phenyl]quinoline-5-sulfonamide] gave an MIC of 45.2 µM (≈ 16 µg/mL).

Each molecule was assayed on vancomycin-resistant E. faecalis VRE 368 (assay: MIC, microtitration broth method, VRE2). Settings: Enterococcus faecalis, 24 h, 37 °C, BHI broth.
Assay type: cell-based
From the text: as §3, §4, §5
Molecule `C#CCNS(=O)(=O)c1ccc(O)c2ncccc12` [3a, 8-Hydroxy-N-(prop-2-yn-1-yl)quinoline-5-sulfonamide] has an MIC of 977 µM (≈ 256 µg/mL).
In the case of `C#CC(C)(C)NS(=O)(=O)c1ccc(O)c2ncccc12` [3b, 8-Hydroxy-N-(1,1-dimethylprop-2-yn-1-yl)quinoline-5-sulfonamide], the MIC is reported as 883 µM (≈ 256 µg/mL).
In the case of `C#CCOc1ccccc1NS(=O)(=O)c1ccc(O)c2ncccc12` [3f, 8-Hydroxy-N-[2-(prop-2-yn-1-yloxy)phenyl]quinoline-5-sulfonamide], the MIC is reported as 362 µM (≈ 128 µg/mL).

These molecules were tested on Enterococcus faecalis ATCC 29212 (assay: MBC, agar aliquot subculture method, EF). Settings: ATCC29212, 99.9% decrease in CFU, 24 h, 37 °C.
Assay type: cell-based
From the text: as §1, §2
In the case of `C#CCNS(=O)(=O)c1ccc(O)c2ncccc12` [3a, 8-Hydroxy-N-(prop-2-yn-1-yl)quinoline-5-sulfonamide], the MBC is reported as > 977 µM.
In the case of `C#CC(C)(C)NS(=O)(=O)c1ccc(O)c2ncccc12` [3b, 8-Hydroxy-N-(1,1-dimethylprop-2-yn-1-yl)quinoline-5-sulfonamide], the MBC is reported as > 883 µM.
For `C#CCOc1ccccc1NS(=O)(=O)c1ccc(O)c2ncccc12` [3f, 8-Hydroxy-N-[2-(prop-2-yn-1-yloxy)phenyl]quinoline-5-sulfonamide], the MBC was 362 µM (≈ 128 µg/mL).

These molecules were tested on A549 (human lung adenocarcinoma) cells (assay: WST-1 cell viability assay, A549). Settings: Homo sapiens, A549; WST-1, 72 h exposure, ± SD, n = 6.
Assay type: cell-based
Description: as §6, §7, §8, §9
`C#CCNS(=O)(=O)c1ccc(O)c2ncccc12` [3a, 8-Hydroxy-N-(prop-2-yn-1-yl)quinoline-5-sulfonamide] gave an IC50 of 23.1 ± 0.7 µM.
In the case of `C#CC(C)(C)NS(=O)(=O)c1ccc(O)c2ncccc12` [3b, 8-Hydroxy-N-(1,1-dimethylprop-2-yn-1-yl)quinoline-5-sulfonamide], the IC50 is reported as 17.2 ± 1.5 µM.
`C#CCOc1ccccc1NS(=O)(=O)c1ccc(O)c2ncccc12` [3f, 8-Hydroxy-N-[2-(prop-2-yn-1-yloxy)phenyl]quinoline-5-sulfonamide] gave an IC50 of 19.1 ± 0.8 µM.
